PubChem BioAssay AID248 (DTP/NCI, 2004)
“And” between values parts separate entries of the source, which are not always exact repeats. Equal entries are not always repeated. Inconclusive results and toxic doses are left out. No stated cut-off is given here; in the data, active means T/C of 150% or more; inactive means T/C below 125%.

Test system: L1210 leukemia ip in BDF1 mice, survival T/C
Assay: NCI In Vivo Anticancer Drug Screen. Data for tumor model L1210 Leukemia (intraperitoneal) in B6D2F1 (BDF1) mice
Settings: endpoint: mean survival time, higher = longer survival
Summary of the method: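 Tumor cells were implanted, animals were treated, and survival was followed. The result divides the treated measurement by the vehicle-control measurement.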

[1] = dose: 100.0 mg/kg/injection, schedule: Q01DX009 (ip), vehicle: Klucel (hydroxypropylcellulose) (HPC)
[2] = dose: 200.0 mg/kg/injection, schedule: Q01DX009 (ip), vehicle: Klucel (hydroxypropylcellulose) (HPC)
[3] = dose: 200.0 mg/kg/injection, schedule: Q04DX003 (ip), vehicle: Klucel (hydroxypropylcellulose) (HPC)
[4] = dose: 400.0 mg/kg/injection, schedule: Q01DX009 (ip), vehicle: Klucel (hydroxypropylcellulose) (HPC)
[5] = dose: 100.0 mg/kg/injection, schedule: Q04DX003 (ip), vehicle: saline with Tween-80
[6] = dose: 200.0 mg/kg/injection, schedule: Q04DX003 (ip), vehicle: saline with Tween-80
[7] = dose: 400.0 mg/kg/injection, schedule: Q04DX003 (ip), vehicle: saline with Tween-80
[8] = dose: 200.0 mg/kg/injection, schedule: Q04DX002 (ip), vehicle: Klucel (hydroxypropylcellulose) (HPC)
[9] = dose: 400.0 mg/kg/injection, schedule: Q04DX002 (ip), vehicle: Klucel (hydroxypropylcellulose) (HPC)
[10] = dose: 100.0 mg/kg/injection, schedule: Q04DX002 (ip), vehicle: saline with Tween-80
[11] = dose: 200.0 mg/kg/injection, schedule: Q04DX002 (ip), vehicle: saline with Tween-80
[12] = dose: 100.0 mg/kg/injection, schedule: Q01DX001 (ip), vehicle: saline
[13] = dose: 200.0 mg/kg/injection, schedule: Q01DX001 (ip), vehicle: saline

Measured: T/C

CC(C)CCCC(C)C1CCC2C3CCC4CC(O)CCC4(C)C3CCC12C (centres undefined)
inactive: dose: 100.0 mg/kg/injection, schedule: Q01DX001 (sc), vehicle: steriod suspending solution 109 % of control | dose: 200.0 mg/kg/injection, schedule: Q01DX001 (sc), vehicle: steriod suspending solution 109 % of control | dose: 400.0 mg/kg/injection, schedule: Q01DX001 (sc), vehicle: steriod suspending solution 100 % of control

Cc1c(N=CN(C)C)c(=O)n(-c2ccccc2)n1C
inactive: [1] 94 % of control | dose: 100.0 mg/kg/injection, schedule: Q04DX003 (ip), vehicle: Klucel (hydroxypropylcellulose) (HPC) 110 % of control | [2] 93 % of control | [3] 105 % of control | [4] 100 % of control | dose: 400.0 mg/kg/injection, schedule: Q04DX003 (ip), vehicle: Klucel (hydroxypropylcellulose) (HPC) 107 % of control

O=C1OCc2cc3ccccc3nc21
inactive: dose: 100.0 mg/kg/injection, schedule: Q01DX009 (ip), vehicle: saline with Tween-80 94 % of control | [5] 105 % of control | dose: 200.0 mg/kg/injection, schedule: Q01DX009 (ip), vehicle: saline with Tween-80 97 % of control | [6] 105 % of control | dose: 400.0 mg/kg/injection, schedule: Q01DX009 (ip), vehicle: saline with Tween-80 92 % of control | [7] 96 % of control

COc1cc2c(cc1OC(C)=O)C(OC(C)=O)CCCC2 (centres undefined)
inactive: dose: 5.0 mg/kg/injection, schedule: Q01DX001 (ip), vehicle: saline 109 % of control | dose: 10.0 mg/kg/injection, schedule: Q01DX001 (ip), vehicle: saline 109 % of control | dose: 20.0 mg/kg/injection, schedule: Q01DX001 (ip), vehicle: saline 97 % of control | dose: 40.0 mg/kg/injection, schedule: Q01DX001 (ip), vehicle: saline 105 % of control

O=C(Nc1ccccc1)OC/C=C\c1ccccc1
inactive: [8] 90 % of control | [9] 93 % of control

CC(C)NC(=O)Nc1cccc(OC(=O)NC(C)(C)C)c1
inactive: [5] 88 % of control | [6] 91 % of control | [7] 89 % of control

CCOC(=O)C1=C(C)NC(C)=C(C(=O)OCC)C1c1ccccc1[N+](=O)[O-]
inactive: dose: 6.25 mg/kg/injection, schedule: Q01DX009 (ip), vehicle: saline with Tween-80 97 % of control | dose: 12.5 mg/kg/injection, schedule: Q01DX009 (ip), vehicle: saline with Tween-80 108 % of control | dose: 25.0 mg/kg/injection, schedule: Q01DX009 (ip), vehicle: saline with Tween-80 98 % of control and 105 % of control | [5] 90 % of control

c1ccc(C2OCCCOC2c2ccccc2)cc1 (centres undefined)
inactive: dose: 100.0 mg/kg/injection, schedule: Q01DX001 (ip), vehicle: carboxymethylcellulose (CMC) 97 % of control | dose: 200.0 mg/kg/injection, schedule: Q01DX001 (ip), vehicle: carboxymethylcellulose (CMC) 97 % of control | dose: 400.0 mg/kg/injection, schedule: Q01DX001 (ip), vehicle: carboxymethylcellulose (CMC) 103 % of control

CCOC(=O)c1ccc(NC(=S)NC(Cc2ccccc2)c2ccccc2)cc1 (centres undefined)
inactive: [10] 98 % of control | [11] 95 % of control | dose: 400.0 mg/kg/injection, schedule: Q04DX002 (ip), vehicle: saline with Tween-80 95 % of control

NC(=O)OCCCc1ccccc1
inactive: dose: 12.5 mg/kg/injection, schedule: Q01DX009 (ip), vehicle: saline 112 % of control | dose: 25.0 mg/kg/injection, schedule: Q01DX009 (ip), vehicle: saline 105 % of control | dose: 25.0 mg/kg/injection, schedule: Q04DX003 (ip), vehicle: Klucel (hydroxypropylcellulose) (HPC) 101 % of control | dose: 50.0 mg/kg/injection, schedule: Q01DX009 (ip), vehicle: saline 103 % of control | dose: 50.0 mg/kg/injection, schedule: Q04DX003 (ip), vehicle: Klucel (hydroxypropylcellulose) (HPC) 104 % of control | dose: 100.0 mg/kg/injection, schedule: Q01DX009 (ip), vehicle: saline 112 % of control | dose: 200.0 mg/kg/injection, schedule: Q01DX009 (ip), vehicle: saline 105 % of control | [3] 98 % of control

[CH3][Sb]1([CH3])([CH3])[O]S(=O)(=O)[O]1
inactive: dose: 75.0 mg/kg/injection, schedule: Q01DX001 (ip), vehicle: saline 97 % of control | dose: 150.0 mg/kg/injection, schedule: Q01DX001 (ip), vehicle: saline 102 % of control | dose: 300.0 mg/kg/injection, schedule: Q01DX001 (ip), vehicle: saline 105 % of control

CCC(=O)Nc1cc(C)ccc1Cl
inactive: [1] 101 % of control | [2] 103 % of control | [4] 103 % of control

[Co]#[Sb]
inactive: dose: 75.0 mg/kg/injection, schedule: Q04DX003 (sc), vehicle: olive oil, sesame oil, peanut oil 96 % of control | dose: 150.0 mg/kg/injection, schedule: Q04DX003 (sc), vehicle: olive oil, sesame oil, peanut oil 95 % of control | dose: 300.0 mg/kg/injection, schedule: Q04DX003 (sc), vehicle: olive oil, sesame oil, peanut oil 105 % of control

CCOC(=O)C1C(=O)CC(=O)C(C(=O)OCC)C1c1ccc(OC)c(OC)c1OC (centres undefined)
inactive: dose: 100.0 mg/kg/injection, schedule: Q04DX002 (ip), vehicle: Klucel (hydroxypropylcellulose) (HPC) 103 % of control | [8] 101 % of control | [9] 113 % of control

CCCCCCC1CCC(N)CC1 (centres undefined)
inactive: dose: 6.25 mg/kg/injection, schedule: Q04DX002 (ip), vehicle: saline with Tween-80 95 % of control | dose: 12.5 mg/kg/injection, schedule: Q04DX002 (ip), vehicle: saline with Tween-80 95 % of control | dose: 25.0 mg/kg/injection, schedule: Q04DX002 (ip), vehicle: saline with Tween-80 113 % of control

O=C1OC(c2ccccc2)=C/C1=C\c1[nH]c(=S)[nH]c(=O)c1Cc1ccc(Cl)cc1
inactive: dose: 100.0 mg/kg/injection, schedule: Q01DX001 (ip), vehicle: saline with Tween-80 102 % of control | dose: 200.0 mg/kg/injection, schedule: Q01DX001 (ip), vehicle: saline with Tween-80 89 % of control | dose: 400.0 mg/kg/injection, schedule: Q01DX001 (ip), vehicle: saline with Tween-80 90 % of control

CC(=O)NCC(O)C(O)C(/C=N/Nc1ccccc1)=N/Nc1ccccc1 (centres undefined)
inactive: dose: 50.0 mg/kg/injection, schedule: Q04DX002 (ip), vehicle: saline with Tween-80 91 % of control | [10] 87 % of control | [11] 95 % of control

CN(C)C(C#N)C(=O)c1ccc(Cl)cc1 (centres undefined)
inactive: [12] 91 % of control | [13] 95 % of control

O=c1cc(NCCc2ccccc2)[nH]c(=O)[nH]1
inactive: dose: 100.0 mg/kg/injection, schedule: Q01DX001 (ip), vehicle: Klucel (hydroxypropylcellulose) (HPC) 93 % of control | dose: 200.0 mg/kg/injection, schedule: Q01DX001 (ip), vehicle: Klucel (hydroxypropylcellulose) (HPC) 95 % of control | dose: 400.0 mg/kg/injection, schedule: Q01DX001 (ip), vehicle: Klucel (hydroxypropylcellulose) (HPC) 105 % of control

CC1=C(c2ccccc2)C2(c3ccccc3)C3(C)C(=O)C(C)(C(c4ccccc4)C3c3ccccc3)C2(C)C1=O (centres undefined)
inactive: dose: 100.0 mg/kg/injection, schedule: Q04DX002 (ip), vehicle: gum acacia 97 % of control | dose: 200.0 mg/kg/injection, schedule: Q04DX002 (ip), vehicle: gum acacia 91 % of control | dose: 400.0 mg/kg/injection, schedule: Q04DX002 (ip), vehicle: gum acacia 94 % of control

Cc1nc(N)c2nc(-c3ccc(N(CCO)CCO)cc3)c(N)nc2n1
inactive: [12] 98 % of control | [13] 95 % of control | dose: 400.0 mg/kg/injection, schedule: Q01DX001 (ip), vehicle: saline 89 % of control
